These are literature values, as cited in patent US20240397939A1, “COMPOSITIONS COMPRISING DIFFERENT DRIFT RETARDING AGENTS” (BAYER CROPSCIENCE LP, priority 2021, published 2024).

For this data set the following is noted: known HLB value, estimation by Griffin's method.

As to “Polysorbate 80 (polyoxyethylene sorbitan monooleate) [Tween® 80]”, the HLB is recorded as 15. Take Sorbitan monooleate [Span® 80]: the HLB is 4.3.
